Results published in US20240425478A1, “CYCLOPENTYLPYRAZOLE CDK2 INHIBITORS” (Genentech, Inc., priority 2021, published 2024).
Where two headings read alike, the source gives them in different places.

Columns and labels:
[1] = biological target: T1, Cyclin Dependent Kinase 4/Cyclin D3 (CDK4-cycD3) (Homo sapiens, UniProt P11802); assay: CDK4-cycD3 TR-FRET (LANCE) enzyme assay; type: biochemical; details: Table O, enzymatic assay
T1 construct: purchased Carna Biosciences 04-105
Summary of the method: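 Compound dose responses pre-incubated 30 min with enzyme mix in 50 mM HEPES pH 7.5, 10 mM MgCl2, 2 mM TCEP, 0.05% BGG, 0.01% Brij 35. Reaction quenched with EDTA (15 mM final); Eu-anti-phospho-4E-BP1 TR-FRET detection, acceptor/donor ratio. Ki derived by Morrison equation.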

[2] = biological target: T2, Cyclin Dependent Kinase 1/Cyclin A2 (CDK1-cycA2) (Homo sapiens, UniProt P06493); assay: CDK1-cycA2 TR-FRET (Lance) enzyme assay; type: biochemical; details: Table O, enzymatic assay
T2 construct: purchased ProQinase 0134-0054-1
T2 sequence (P06493 whole entry): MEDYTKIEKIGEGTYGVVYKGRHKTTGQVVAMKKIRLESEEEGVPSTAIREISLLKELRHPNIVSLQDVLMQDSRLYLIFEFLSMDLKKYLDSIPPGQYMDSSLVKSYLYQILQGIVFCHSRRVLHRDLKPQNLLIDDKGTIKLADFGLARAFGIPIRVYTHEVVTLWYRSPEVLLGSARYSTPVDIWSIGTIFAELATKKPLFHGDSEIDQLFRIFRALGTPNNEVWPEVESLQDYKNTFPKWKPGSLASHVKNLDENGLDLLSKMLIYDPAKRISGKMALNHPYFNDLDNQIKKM
T2 sequence (P20248 whole entry partner): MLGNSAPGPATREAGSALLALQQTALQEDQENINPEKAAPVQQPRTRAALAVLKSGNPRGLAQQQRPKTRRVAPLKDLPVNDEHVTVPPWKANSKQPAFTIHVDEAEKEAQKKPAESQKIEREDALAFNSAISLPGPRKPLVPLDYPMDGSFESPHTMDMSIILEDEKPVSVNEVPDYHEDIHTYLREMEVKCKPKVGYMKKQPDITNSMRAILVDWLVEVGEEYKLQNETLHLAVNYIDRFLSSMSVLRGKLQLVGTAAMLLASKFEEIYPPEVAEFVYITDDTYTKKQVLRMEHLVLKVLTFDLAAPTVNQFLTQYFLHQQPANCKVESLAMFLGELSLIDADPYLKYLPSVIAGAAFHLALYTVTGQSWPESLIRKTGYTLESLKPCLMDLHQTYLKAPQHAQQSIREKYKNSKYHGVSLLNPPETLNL
Summary of the method: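 Human CDK1/cyclin A2 pre-incubated 30 min with compound dose responses in 50 mM HEPES pH 7.5, 10 mM MgCl2, 2 mM TCEP, 0.05% BGG, 0.01% Brij 35. Reaction quenched with EDTA (15 mM final); TR-FRET readout using Eu-anti-phospho-4E-BP1, acceptor/donor ratio. Inhibition constants from Morrison equation.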

[3] = system: SKOV-3 (ATCC HTB-77); assay: SKOV-3 EdU incorporation cell proliferation assay (CDK4/6-dependent); type: cell-based; details: Homo sapiens, cellular assay, read-out: CDK4/6 SKOV-3 IC50
Summary of the method: (§1)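 Cells in RPMI/10% FBS dosed with compound (0.5% DMSO final) for 16 h at 37 °C, 5% CO2, then EdU 0.5 μM final for 8 h before fixation and imaging. IC50 from 4-parameter logistic fit of EdU-positive cell fraction versus dose.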

[4] = system: OVISE (JCRB1043, CCNE1-amplified); assay: OVISE EdU incorporation cell proliferation assay (CDK2-dependent); type: cell-based; details: for IC50: cellular assay, read-out: CDK2 OVISE IC50; for FS SKOV-3/OVISE / FS p-H3/OVISE: fold selectivity; for FS p-H3/OVISE: cellular p-H3 IC50 over OVISE IC50; for increased fold-selectivity SKOV-3/OVISE over Comparator C: (+) sign after FS SKOV-3/OVISE; for improvement in CDK2 OVISE cell potency over Comparator C: in brackets after OVISE IC50, Comparator C 5.5 μM
Summary of the method: as §1

[5] = biological target: T3, Cyclin Dependent Kinase 2/Cyclin E1 (CDK2-cycE1) (Homo sapiens, UniProt P24941); assay: CDK2-cycE1 TR-FRET (LANCE) enzyme assay; type: biochemical; details: for FS CDK1/CDK2 / FS CDK4/CDK2: fold selectivity; for increased fold-selectivity CDK1/CDK2 over Comparator C: (+) sign after FS CDK1/CDK2; for increased fold-selectivity CDK4/CDK2 over Comparator C: (+) sign after FS CDK4/CDK2;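 as to improvement in potency against CDK2 (Ki) over Comparator C: fold lower CDK2 Ki than comparator c (Ki 0.032 µM)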
T3 construct: purchased ProQinase 0050-0055-1
Summary of the method: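 Compound dose responses pre-incubated 30 min with CDK2-cycE1 in 50 mM HEPES pH 7.5, 10 mM MgCl2, 2 mM TCEP, 0.05% BGG, 0.01% Brij 35. Reaction quenched with EDTA (15 mM final), phospho-MBP detected by Eu-anti-phospho-MBP TR-FRET (acceptor/donor ratio). Inhibition constants from Morrison equation.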

[6] = system: HCT116 cells; assay: p-H3 HCT-116 mitotic release cell proliferation assay (cellular CDK1); type: cell-based; details: Homo sapiens, HCT-116; Table O, cellular assay; read-out: CDK1 p-H3 IC50
Summary of the method: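 HCT116 cells arrested 16 h with 500 nM nocodazole, then exposed to compound for 4 h at 37 °C (0.1% DMSO). Lysates read by HTRF/FRET with donor and acceptor phospho-Histone H3 (Ser10) antibodies, ≥2 h at room temperature; CDK1 inhibition seen as loss of p-H3 on mitotic release.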

[7] = Table O, cellular SKOV-3 IC50 over OVISE IC50
[8] = Table O, enzymatic assay, read-out: CDK2 Ki
[9] = Table O, enzymatic CDK1 Ki over CDK2 Ki
[10] = Table O, enzymatic CDK4 Ki over CDK2 Ki
[11] = Table Q, enzymatic assay, read-out: CDK2 Ki
[12] = read-out: CDK2 activity / potency (enzymatic assay)

T1 sequence (P11802 whole entry): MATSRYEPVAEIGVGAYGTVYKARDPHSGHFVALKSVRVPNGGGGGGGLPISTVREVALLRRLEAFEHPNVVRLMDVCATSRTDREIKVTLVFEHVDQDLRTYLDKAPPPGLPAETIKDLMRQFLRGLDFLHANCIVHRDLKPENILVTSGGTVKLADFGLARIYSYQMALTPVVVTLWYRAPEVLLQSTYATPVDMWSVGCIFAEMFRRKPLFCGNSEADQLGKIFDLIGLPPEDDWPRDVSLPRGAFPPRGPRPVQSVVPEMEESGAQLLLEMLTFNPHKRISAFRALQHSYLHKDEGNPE
T1 sequence (P30281 whole entry partner): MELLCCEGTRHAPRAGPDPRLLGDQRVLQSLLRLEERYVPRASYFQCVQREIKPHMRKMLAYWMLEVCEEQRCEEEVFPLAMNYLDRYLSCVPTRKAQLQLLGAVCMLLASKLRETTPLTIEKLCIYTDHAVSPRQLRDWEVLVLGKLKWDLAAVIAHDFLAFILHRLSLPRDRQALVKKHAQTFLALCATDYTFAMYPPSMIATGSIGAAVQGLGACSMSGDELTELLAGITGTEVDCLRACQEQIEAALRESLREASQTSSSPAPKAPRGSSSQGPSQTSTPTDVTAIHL

## Cc1nccnc1Nc1cc([C@H]2CC[C@@H](OC(=O)NC(C)C)C2)[nH]n1 [Example 2T, (1R,3S)-3-(3-((3-methylpyrazin-2-yl)amino)-1H-pyrazol-5-yl)cyclopentyl isopropylcarbamate]
[1]
  Ki: 150 nM
[2]
  Ki: 64 nM
[3]; SK-OV-3, Table O
  IC50: 1.5 µM
[3]; SK-OV-3, Table Q
  IC50: 1.5 µM
[4]; Table O
  IC50: 52 nM
  FS p-H3/OVISE: 2.3
[4]; [7]
  FS SKOV-3/OVISE: 29
[4]; Table Q
  increased fold-selectivity SKOV-3/OVISE over Comparator C: (+) (The (+) sign in Table Q signifies desirable increased fold-selectivity of the exemplary compounds over Comparator C)
  improvement in CDK2 OVISE cell potency over Comparator C: 106 fold
[4]; Table Q, cellular
  FS SKOV-3/OVISE: 29
[5]
  improvement in potency against CDK2 (Ki) over Comparator C: 37 fold
[5]; [8]
  Ki: 0.86 nM
[5]; [9]
  FS CDK1/CDK2: 74
[5]; [10]
  FS CDK4/CDK2: 170
[5]; Table Q
  increased fold-selectivity CDK1/CDK2 over Comparator C: (+) (The (+) sign in Table Q signifies desirable increased fold-selectivity of the exemplary compounds over Comparator C)
  increased fold-selectivity CDK4/CDK2 over Comparator C: (+) (The (+) sign in Table Q signifies desirable increased fold-selectivity of the exemplary compounds over Comparator C)
[5]; [11]
  Ki: 0.86 nM
[5]; Table Q, enzymatic
  FS CDK1/CDK2: 74
  FS CDK4/CDK2: 170
[5]; [12]
  Ki: ≤ 1 nM
[6]
  IC50: 120 nM

## CC(C)NC(=O)O[C@@H]1CC[C@H](c2cc(Nc3ccnc(N)n3)n[nH]2)C1 [Example 2G, (1R,3S)-3-(3-((2-aminopyrimidin-4-yl)amino)-1H-pyrazol-5-yl)cyclopentyl isopropylcarbamate]
[1]
  Ki: 150 nM
[2]
  Ki: 88 nM
[3]; SK-OV-3, Table O
  IC50: 10 µM
[3]; SK-OV-3, Table Q
  IC50: 10 µM
[4]; Table O
  IC50: 280 nM
  FS p-H3/OVISE: 1.0
[4]; [7]
  FS SKOV-3/OVISE: 36
[4]; Table Q
  increased fold-selectivity SKOV-3/OVISE over Comparator C: (+) (The (+) sign in Table Q signifies desirable increased fold-selectivity of the exemplary compounds over Comparator C)
  improvement in CDK2 OVISE cell potency over Comparator C: 19.6 fold
[4]; Table Q, cellular
  FS SKOV-3/OVISE: 36
[5]
  improvement in potency against CDK2 (Ki) over Comparator C: 21 fold
[5]; [8]
  Ki: 1.5 nM
[5]; [9]
  FS CDK1/CDK2: 59
[5]; [10]
  FS CDK4/CDK2: 100
[5]; Table Q
  increased fold-selectivity CDK1/CDK2 over Comparator C: (+) (The (+) sign in Table Q signifies desirable increased fold-selectivity of the exemplary compounds over Comparator C)
  increased fold-selectivity CDK4/CDK2 over Comparator C: (+) (The (+) sign in Table Q signifies desirable increased fold-selectivity of the exemplary compounds over Comparator C)
[5]; [11]
  Ki: 1.5 nM
[5]; Table Q, enzymatic
  FS CDK1/CDK2: 59
  FS CDK4/CDK2: 100
[6]
  IC50: 280 nM

## C[C@H](NC(=O)O[C@@H]1CC[C@H](c2cc(Nc3ccc(=O)n(C)n3)n[nH]2)C1)c1ccccc1 [Example 6E, (1R,3S)-3-(3-((1-methyl-6-oxo-1,6-dihydropyridazin-3-yl)amino)-1H-pyrazol-5-yl)cyclopentyl ((S)-1-phenylethyl)carbamate]
[1]
  Ki: 18 nM
[2]
  Ki: 48 nM
[3]; SK-OV-3, Table O
  IC50: 15 µM
[4]; Table O
  IC50: 320 nM
  FS p-H3/OVISE: 0.91
[4]; [7]
  FS SKOV-3/OVISE: 47
[5]; [8]
  Ki: 2.9 nM
[5]; [9]
  FS CDK1/CDK2: 17
[5]; [10]
  FS CDK4/CDK2: 6.2
[6]
  IC50: 290 nM

## CN(C(=O)O[C@@H]1CC[C@H](c2cc(Nc3ccc(=O)n(C)n3)n[nH]2)C1)C(C)(C)C [Example 6B, (1R,3S)-3-(3-((1-methyl-6-oxo-1,6-dihydropyridazin-3-yl)amino)-1H-pyrazol-5-yl)cyclopentyl tert-butyl(methyl)carbamate]
[1]
  Ki: 7.4 nM
[2]
  Ki: 0.78 nM
[3]; SK-OV-3, Table O
  IC50: 0.39 µM
[4]; Table O
  IC50: 27 nM
  FS p-H3/OVISE: 0.32
[4]; [7]
  FS SKOV-3/OVISE: 14
[5]; [8]
  Ki: < 0.1 nM
[5]; [9]
  FS CDK1/CDK2: >12
[5]; [10]
  FS CDK4/CDK2: >120
[6]
  IC50: 8.7 nM

## CN1CCC(NC(=O)O[C@@H]2CC[C@H](c3cc(Nc4cccnn4)n[nH]3)C2)CC1 [Example 3E, (1R,3S)-3-(3-(pyridazin-3-ylamino)-1H-pyrazol-5-yl)cyclopentyl (1-methylpiperidin-4-yl)carbamate]
[1]
  Ki: 720 nM
[2]
  Ki: 280 nM
[3]; SK-OV-3, Table O
  IC50: 13 µM
[4]; Table O
  IC50: 420 nM
  FS p-H3/OVISE: 3.3
[4]; [7]
  FS SKOV-3/OVISE: 31
[5]; [8]
  Ki: 10 nM
[5]; [9]
  FS CDK1/CDK2: 28
[5]; [10]
  FS CDK4/CDK2: 72
[6]
  IC50: 1400 nM

## CNc1nccc(Nc2cc([C@H]3CC[C@@H](OC(=O)NC(C)C)C3)[nH]n2)n1 [Example 2H, (1R,3S)-3-(3-((2-(methylamino)pyrimidin-4-yl)amino)-1H-pyrazol-5-yl)cyclopentyl isopropylcarbamate]
[1]
  Ki: 18 nM
[2]
  Ki: 7.5 nM
[3]; SK-OV-3, Table O
  IC50: 1.1 µM
[3]; SK-OV-3, Table Q
  IC50: 1.1 µM
[4]; Table O
  IC50: 67 nM
  FS p-H3/OVISE: 0.48
[4]; [7]
  FS SKOV-3/OVISE: 16
[4]; Table Q
  increased fold-selectivity SKOV-3/OVISE over Comparator C: (+) (The (+) sign in Table Q signifies desirable increased fold-selectivity of the exemplary compounds over Comparator C)
  improvement in CDK2 OVISE cell potency over Comparator C: 82 fold
[4]; Table Q, cellular
  FS SKOV-3/OVISE: 16
[5]
  improvement in potency against CDK2 (Ki) over Comparator C: 114 fold
[5]; [8]
  Ki: 0.28 nM
[5]; [9]
  FS CDK1/CDK2: 27
[5]; [10]
  FS CDK4/CDK2: 64
[5]; Table Q
  increased fold-selectivity CDK4/CDK2 over Comparator C: (+) (The (+) sign in Table Q signifies desirable increased fold-selectivity of the exemplary compounds over Comparator C)
[5]; [11]
  Ki: 0.28 nM
[5]; Table Q, enzymatic
  FS CDK1/CDK2: 27
  FS CDK4/CDK2: 64
[5]; [12]
  Ki: ≤ 1 nM
[6]
  IC50: 32 nM

## Cc1nccc(Nc2cc([C@H]3CC[C@@H](OC(=O)NC(C)C)C3)[nH]n2)n1 [Example 2O, (1R,3S)-3-(3-((2-methylpyrimidin-4-yl)amino)-1H-pyrazol-5-yl)cyclopenty1 isopropylcarbamate]
[1]
  Ki: 250 nM
[2]
  Ki: 24 nM
[3]; SK-OV-3, Table O
  IC50: 3.9 µM
[3]; SK-OV-3, Table Q
  IC50: 3.9 µM
[4]; Table O
  IC50: 70 nM
  FS p-H3/OVISE: 0.31
[4]; [7]
  FS SKOV-3/OVISE: 56
[4]; Table Q
  increased fold-selectivity SKOV-3/OVISE over Comparator C: (+) (The (+) sign in Table Q signifies desirable increased fold-selectivity of the exemplary compounds over Comparator C)
  improvement in CDK2 OVISE cell potency over Comparator C: 78.6 fold
[4]; Table Q, cellular
  FS SKOV-3/OVISE: 56
[5]
  improvement in potency against CDK2 (Ki) over Comparator C: 37 fold
[5]; [8]
  Ki: 0.87 nM
[5]; [9]
  FS CDK1/CDK2: 28
[5]; [10]
  FS CDK4/CDK2: 290
[5]; Table Q
  increased fold-selectivity CDK4/CDK2 over Comparator C: (+) (The (+) sign in Table Q signifies desirable increased fold-selectivity of the exemplary compounds over Comparator C)
[5]; [11]
  Ki: 0.87 nM
[5]; Table Q, enzymatic
  FS CDK1/CDK2: 28
  FS CDK4/CDK2: 290
[6]
  IC50: 22 nM

## Cc1nnccc1Nc1cc([C@H]2CC[C@@H](OC(=O)NC(C)(C)C)C2)[nH]n1 [Example 11A, (1R,3S)-3-(3-((3-methylpyridazin-4-yl)amino)-1H-pyrazol-5-yl)cyclopentyl tert-butylcarbamate]
[1]
  Ki: 280 nM
[2]
  Ki: 83 nM
[3]; SK-OV-3, Table O
  IC50: 12 µM
[4]; Table O
  IC50: 120 nM
  FS p-H3/OVISE: 1.9
[4]; [7]
  FS SKOV-3/OVISE: 100
[5]; [8]
  Ki: 0.63 nM
[5]; [9]
  FS CDK1/CDK2: 132
[5]; [10]
  FS CDK4/CDK2: 444
[6]
  IC50: 230 nM
